Reference: patent US20150246907A1 (ETH Zurich, priority 2012, published 2015)
Values after ≈ are worked out from the molar mass of the structure shown.

System: Mycobacterium tuberculosis strain H37Rv
Test: Minimal inhibitory concentration (MIC) by resazurin microtitre assay (REMA)
Format: cell-based
Settings: for MIC: Mycobacterium tuberculosis, 168 h, M. tuberculosis H37Rv, REMA, 7 days (10 generations), 96-well plate

CC(C)[C@@H]1OC(=O)[C@H](C)[C@H](O)[C@H](Cc2cccnc2)NC(=O)[C@@H](NC(=O)c2ncccc2O)[C@@H](C)OC1=O [Analog 100a]
MIC: 12.5 µg/mL (≈ 23.6 µM)

CC(C)[C@H]1OC(=O)[C@H](C)[C@H](O)[C@H](Cc2cccnc2)NC(=O)[C@@H](NC(=O)c2ncccc2O)[C@@H](C)OC1=O [Analog 100b]
MIC: 1.56 µg/mL (≈ 2.95 µM)
activity against Mycobacterium tuberculosis (strain H37Rv) compared with pyridomycin (strain H37Rv, statement in words): in the same range of inhibitory activity as for pyridomycin
